Reference: ChEMBL document CHEMBL1153245, “A profile of the in vitro anti-tumor activity of imidazolium-based ionic liquids” (2010)

Tests used:
Type in all cases: functional
SN12C = assay: Anticancer activity against human SN12C cells assessed cell growth at 10 uM after 48 hrs by sulforhodamine B assay relative to control
HCT-15 [1] = assay: Anticancer activity against human HCT15 cells assessed cell growth at 10 uM after 48 hrs by sulforhodamine B assay relative to control
A549 [2] = assay: Anticancer activity against human A549 cells after 48 hrs by sulforhodamine B assay; conditions: Homo sapiens, A549, 48 h
SR = assay: Anticancer activity against human SR cells after 48 hrs by sulforhodamine B assay; conditions: Homo sapiens, SR, 48 h
EKVX = assay: Anticancer activity against human EKVX cells after 48 hrs by sulforhodamine B assay; conditions: Homo sapiens, EKVX, 48 h
MCF7 = assay: Anticancer activity against human MCF7 cells after 48 hrs by sulforhodamine B assay; conditions: Homo sapiens, MCF7, 48 h
NCI-H322M [3] = assay: Anticancer activity against human NCI-H322M cells after 48 hrs by sulforhodamine B assay; conditions: Homo sapiens, NCI-H322M, 48 h
A498 [4] = assay: Anticancer activity against human A498 cells after 48 hrs by sulforhodamine B assay; conditions: Homo sapiens, A498, 48 h
MDA-MB-435 = assay: Anticancer activity against human MDA-MB-435 cells after 48 hrs by sulforhodamine B assay; conditions: Homo sapiens, MDA-MB-435, 48 h
[5] = Anticancer activity against human […] cells after 48 hrs by sulforhodamine B assay; conditions: Homo sapiens, RPMI8266, 48 h
UACC-62 = assay: Anticancer activity against human UACC62 cells after 48 hrs by sulforhodamine B assay; conditions: Homo sapiens, UACC-62, 48 h
ACHN = assay: Anticancer activity against human ACHN cells after 48 hrs by sulforhodamine B assay; conditions: Homo sapiens, ACHN, 48 h
OVCAR-8 [6] = assay: Anticancer activity against human OVCAR8 cells after 48 hrs by sulforhodamine B assay; conditions: Homo sapiens, OVCAR-8, 48 h
NCI-H322M [7] = assay: Anticancer activity against human NCI-H322M cells assessed cell growth at 10 uM after 48 hrs by sulforhodamine B assay relative to control
NCI-H522 = assay: Anticancer activity against human NCI-H522 cells after 48 hrs by sulforhodamine B assay; conditions: Homo sapiens, NCI-H522, 48 h
HL-60(TB) = assay: Anticancer activity against human HL-60(TB) cells after 48 hrs by sulforhodamine B assay; conditions: Homo sapiens, HL-60, 48 h
U-251 = assay: Anticancer activity against human U251 cells assessed cell growth at 10 uM after 48 hrs by sulforhodamine B assay relative to control
NCI-H460 = assay: Anticancer activity against human NCI-H460 cells after 48 hrs by sulforhodamine B assay; conditions: Homo sapiens, NCI-H460, 48 h
OVCAR-8 [8] = assay: Anticancer activity against human OVCAR8 cells assessed cell growth at 10 uM after 48 hrs by sulforhodamine B assay relative to control
HCT-15 [9] = assay: Anticancer activity against human HCT15 cells after 48 hrs by sulforhodamine B assay; conditions: Homo sapiens, HCT-15, 48 h
SF-539 = assay: Anticancer activity against human SF539 cells assessed cell growth at 10 uM after 48 hrs by sulforhodamine B assay relative to control
MOLT-4 [10] = assay: Anticancer activity against human MOLT4 cells assessed cell growth at 10 uM after 48 hrs by sulforhodamine B assay relative to control
SK-MEL-5 = assay: Anticancer activity against human SK-MEL-5 cells after 48 hrs by sulforhodamine B assay; conditions: Homo sapiens, SK-MEL-5, 48 h
NCI-H226 = assay: Anticancer activity against human NCI-H226 cells after 48 hrs by sulforhodamine B assay; conditions: Homo sapiens, NCI-H226, 48 h
A549 [11] = assay: Anticancer activity against human A549 cells assessed cell growth at 10 uM after 48 hrs by sulforhodamine B assay relative to control
A498 [12] = assay: Anticancer activity against human A498 cells assessed cell growth at 10 uM after 48 hrs by sulforhodamine B assay relative to control
SK-OV-3 = assay: Anticancer activity against human SKOV3 cells after 48 hrs by sulforhodamine B assay; conditions: Homo sapiens, SK-OV-3, 48 h
MDA-MB-468 = assay: Anticancer activity against human MDA-MB-468 cells after 48 hrs by sulforhodamine B assay; conditions: Homo sapiens, MDA-MB-468, 48 h
NCI-H23 = assay: Anticancer activity against human NCI-H23 cells after 48 hrs by sulforhodamine B assay; conditions: Homo sapiens, NCI-H23, 48 h
SF-295 [13] = assay: Anticancer activity against human SF295 cells assessed cell growth at 10 uM after 48 hrs by sulforhodamine B assay relative to control
COLO 205 = assay: Anticancer activity against human COLO205 cells assessed cell growth at 10 uM after 48 hrs by sulforhodamine B assay relative to control
SF-295 [14] = assay: Anticancer activity against human SF295 cells after 48 hrs by sulforhodamine B assay; conditions: Homo sapiens, SF-295, 48 h
HT-29 = assay: Anticancer activity against human HT-29 cells after 48 hrs by sulforhodamine B assay; conditions: Homo sapiens, HT-29, 48 h
BT-549 = assay: Anticancer activity against human BT549 cells assessed cell growth at 10 uM after 48 hrs by sulforhodamine B assay relative to control
OVCAR-4 = assay: Anticancer activity against human OVCAR4 cells after 48 hrs by sulforhodamine B assay; conditions: Homo sapiens, OVCAR-4, 48 h
RXF 393 = assay: Anticancer activity against human RXF393 cells after 48 hrs by sulforhodamine B assay; conditions: Homo sapiens, RXF 393, 48 h
OVCAR-3 = assay: Anticancer activity against human OVCAR-3 cells assessed cell growth at 10 uM after 48 hrs by sulforhodamine B assay relative to control
KM12 = assay: Anticancer activity against human KM12 cells assessed cell growth at 10 uM after 48 hrs by sulforhodamine B assay relative to control
MOLT-4 [15] = assay: Anticancer activity against human MOLT4 cells after 48 hrs by sulforhodamine B assay; conditions: Homo sapiens, MOLT-4, 48 h
MDA-MB-231 = assay: Anticancer activity against human MDA-MB-231 cells after 48 hrs by sulforhodamine B assay; conditions: Homo sapiens, MDA-MB-231, 48 h
UACC-257 = assay: Anticancer activity against human UACC257 cells after 48 hrs by sulforhodamine B assay; conditions: Homo sapiens, UACC-257, 48 h
[16] = read-out: LC50 (the source's name)

`CCCCCCCCCCCCCCCCCC[n+]1ccn(C)c1.FC(F)(F)C(F)(F)[P-](F)(F)(F)(C(F)(F)C(F)(F)F)C(F)(F)C(F)(F)F` gave an Activity (SN12C) of -75.69%, an Activity (HCT-15 [1]) of -23.91% and a GI50 (A549 [2]) of 458 nM. For the same compound, the LC50 (concentration killing 50% of cells) (A549 [2]) was > 100000 nM, the GI50 (SR) was 3370 nM and the CC50 (SR; [16]) was > 100000 nM. The GI50 (EKVX) was 346 nM, the CC50 (EKVX; [16]) was 8910 nM and the GI50 (MCF7) was 309 nM. It also gave an LC50 (50% cell kill) (MCF7) of 4690 nM, a GI50 (NCI-H322M [3]) of 406 nM and an LC50 (NCI-H322M [3]) of 5540 nM. For the same compound, the GI50 (A498 [4]) was 371 nM, the CC50 (A498 [4]; [16]) was 3390 nM and the GI50 (MDA-MB-435) was 344 nM. For the same compound, the CC50 (MDA-MB-435; [16]) was 2930 nM, the GI50 [5] was 86 nM and the CC50 [5, 16] was > 100000 nM. It also gave a GI50 (UACC-62) of 500 nM, an LC50 (UACC-62) of 4660 nM and a GI50 (ACHN) of 281 nM. For the same compound, the LC50 (ACHN) was 3550 nM, the GI50 (OVCAR-8 [6]) was 491 nM and the LC50 (OVCAR-8 [6]) was > 100000 nM. The Activity (NCI-H322M [7]) was 5.98%, the GI50 (NCI-H522) was 285 nM and the LC50 (NCI-H522) was 4320 nM. The GI50 (HL-60(TB)) was 238 nM, the CC50 (HL-60(TB); [16]) was > 100000 nM and the Activity (U-251) was -39.24%. The GI50 (NCI-H460) was 323 nM, the LC50 (NCI-H460) was 4850 nM and the Activity (OVCAR-8 [8]) was -31.79%. It also gave a GI50 (HCT-15 [9]) of 309 nM, a CC50 (HCT-15 [9]; [16]) of 4410 nM and an Activity (SF-539) of -80.42%. For the same compound, the Activity (MOLT-4 [10]) was 17.16%, the GI50 (SK-MEL-5) was 313 nM and the CC50 (SK-MEL-5; [16]) was 3310 nM. It also gave a GI50 (NCI-H226) of 435 nM, an LC50 (NCI-H226) of 8230 nM and an Activity (A549 [11]) of -19.59%. The Activity (A498 [12]) was -47.4%, the GI50 (SK-OV-3) was 355 nM and the CC50 (SK-OV-3; [16]) was 3830 nM. For the same compound, the GI50 (MDA-MB-468) was 173 nM, the LC50 (MDA-MB-468) was > 100000 nM and the GI50 (NCI-H23) was 224 nM. For the same compound, the CC50 (NCI-H23; [16]) was 12700 nM, the Activity (SF-295 [13]) was -26.82% and the Activity (COLO 205) was 5.01%. The GI50 (SF-295 [14]) was 275 nM, the CC50 (SF-295 [14]; [16]) was 5770 nM and the GI50 (HT-29) was 315 nM. The CC50 (HT-29; [16]) was > 100000 nM, the Activity (BT-549) was -56.11% and the GI50 (OVCAR-4) was 320 nM. The CC50 (OVCAR-4; [16]) was > 100000 nM, the GI50 (RXF 393) was 930 nM and the LC50 (RXF 393) was 8310 nM. The Activity (OVCAR-3) was -53.86%, the Activity (KM12) was -56.04% and the GI50 (MOLT-4 [15]) was 336 nM. For the same compound, the LC50 (MOLT-4 [15]) was > 100000 nM, the GI50 (MDA-MB-231) was 378 nM and the CC50 (MDA-MB-231; [16]) was 4820 nM. It also gave a GI50 (UACC-257) of 523 nM and an LC50 (UACC-257) of 9710 nM.
